Assays:
[1] = target: T1, Protein deacetylase HDAC6 (Homo sapiens, UniProt Q9UBN7)
T1 sequence (Q9UBN7 whole entry): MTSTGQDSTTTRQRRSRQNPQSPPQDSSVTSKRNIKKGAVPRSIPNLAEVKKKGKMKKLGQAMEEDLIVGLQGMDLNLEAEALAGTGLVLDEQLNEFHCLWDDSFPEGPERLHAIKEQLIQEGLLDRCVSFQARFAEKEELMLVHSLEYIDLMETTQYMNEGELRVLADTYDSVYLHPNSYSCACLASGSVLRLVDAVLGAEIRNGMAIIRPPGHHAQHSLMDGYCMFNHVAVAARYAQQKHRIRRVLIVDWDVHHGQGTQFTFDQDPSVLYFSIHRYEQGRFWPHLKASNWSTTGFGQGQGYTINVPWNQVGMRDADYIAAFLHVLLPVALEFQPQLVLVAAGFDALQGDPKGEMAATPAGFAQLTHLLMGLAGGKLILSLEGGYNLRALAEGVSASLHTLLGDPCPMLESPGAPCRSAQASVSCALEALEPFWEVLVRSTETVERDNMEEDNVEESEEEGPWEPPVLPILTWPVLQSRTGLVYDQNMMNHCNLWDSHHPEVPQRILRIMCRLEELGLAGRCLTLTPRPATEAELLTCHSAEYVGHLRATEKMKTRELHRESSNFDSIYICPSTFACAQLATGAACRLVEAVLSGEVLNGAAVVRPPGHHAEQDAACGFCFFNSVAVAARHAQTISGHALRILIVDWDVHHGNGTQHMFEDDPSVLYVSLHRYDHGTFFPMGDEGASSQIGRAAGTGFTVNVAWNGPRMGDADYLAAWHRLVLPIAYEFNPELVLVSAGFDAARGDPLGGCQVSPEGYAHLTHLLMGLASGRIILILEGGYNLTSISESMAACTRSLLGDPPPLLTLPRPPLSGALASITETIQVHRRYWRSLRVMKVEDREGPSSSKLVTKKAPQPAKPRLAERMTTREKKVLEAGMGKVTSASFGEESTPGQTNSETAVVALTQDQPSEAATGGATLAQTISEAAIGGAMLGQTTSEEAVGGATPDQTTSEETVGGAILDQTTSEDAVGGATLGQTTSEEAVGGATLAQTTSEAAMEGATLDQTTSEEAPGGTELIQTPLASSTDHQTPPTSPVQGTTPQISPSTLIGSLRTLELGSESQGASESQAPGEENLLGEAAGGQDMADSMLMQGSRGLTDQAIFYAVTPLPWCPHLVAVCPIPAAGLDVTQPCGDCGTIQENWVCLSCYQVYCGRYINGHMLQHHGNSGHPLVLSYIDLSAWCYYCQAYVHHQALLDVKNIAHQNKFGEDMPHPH
Description: Inhibition of HDAC6 (unknown origin) measured by fluorescence based assay

[2] = target: T2, Phosphatidylinositol 4,5-bisphosphate 3-kinase catalytic subunit delta isoform (Homo sapiens, UniProt O00329); test: Inhibition of PI3Kdelta (unknown origin) measured by ADP-Glo assay
T2 sequence (O00329 whole entry): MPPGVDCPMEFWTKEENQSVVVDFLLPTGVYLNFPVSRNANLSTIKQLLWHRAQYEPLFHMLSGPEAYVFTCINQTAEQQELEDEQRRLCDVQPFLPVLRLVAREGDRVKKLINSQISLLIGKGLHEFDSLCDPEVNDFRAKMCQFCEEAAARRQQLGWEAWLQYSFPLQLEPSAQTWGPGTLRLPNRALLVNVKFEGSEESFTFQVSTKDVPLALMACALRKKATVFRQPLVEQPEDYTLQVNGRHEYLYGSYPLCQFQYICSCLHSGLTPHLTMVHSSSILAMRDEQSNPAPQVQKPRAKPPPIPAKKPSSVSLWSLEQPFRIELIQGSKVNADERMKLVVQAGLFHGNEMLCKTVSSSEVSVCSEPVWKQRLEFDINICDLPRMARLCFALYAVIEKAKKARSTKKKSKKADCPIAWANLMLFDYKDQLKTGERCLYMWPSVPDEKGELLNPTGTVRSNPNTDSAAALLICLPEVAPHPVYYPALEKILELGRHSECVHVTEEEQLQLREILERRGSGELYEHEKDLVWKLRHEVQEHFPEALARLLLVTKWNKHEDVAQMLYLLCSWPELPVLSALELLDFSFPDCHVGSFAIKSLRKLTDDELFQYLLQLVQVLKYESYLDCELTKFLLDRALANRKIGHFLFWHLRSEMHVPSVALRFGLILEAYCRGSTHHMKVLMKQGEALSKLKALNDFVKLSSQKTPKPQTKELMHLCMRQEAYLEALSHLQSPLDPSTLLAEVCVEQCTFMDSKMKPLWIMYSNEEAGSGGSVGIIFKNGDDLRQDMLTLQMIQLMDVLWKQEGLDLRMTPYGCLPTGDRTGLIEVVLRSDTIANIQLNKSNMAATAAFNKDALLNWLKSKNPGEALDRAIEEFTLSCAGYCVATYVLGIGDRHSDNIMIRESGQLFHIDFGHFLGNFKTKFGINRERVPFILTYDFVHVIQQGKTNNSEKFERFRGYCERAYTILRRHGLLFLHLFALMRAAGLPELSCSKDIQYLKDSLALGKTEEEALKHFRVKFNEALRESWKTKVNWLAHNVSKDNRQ

Histone deacetylase 1 = Histone deacetylase 1 (Homo sapiens, UniProt Q13547)
Description: Inhibition of HDAC1 (unknown origin) measured by fluorescence based assay

T47D = test: Antiproliferative activity against human T47D cells incubated for 72 hrs by CCK-8 assay; type: functional, cell-based
HCT-116 = test: Antiproliferative activity against human HCT-116 cells incubated for 72 hrs by CCK-8 assay; type: functional, cell-based; details: HCT-116, 72 h
KM12 = test: Antiproliferative activity against human KM12 cells incubated for 72 hrs by CCK-8 assay; type: functional, cell-based; details: KM12, 72 h
SU-DHL-6 = test: Antiproliferative activity against human SU-DHL-6 cells incubated for 72 hrs by CCK-8 assay; type: functional, cell-based; details: SU-DHL-6, 72 h
[3] = Cytotoxicity against HUVEC cells incubated for 72 hrs by CCK-8 assay; details: human

Sequence of Histone deacetylase 1 (Q13547 whole entry): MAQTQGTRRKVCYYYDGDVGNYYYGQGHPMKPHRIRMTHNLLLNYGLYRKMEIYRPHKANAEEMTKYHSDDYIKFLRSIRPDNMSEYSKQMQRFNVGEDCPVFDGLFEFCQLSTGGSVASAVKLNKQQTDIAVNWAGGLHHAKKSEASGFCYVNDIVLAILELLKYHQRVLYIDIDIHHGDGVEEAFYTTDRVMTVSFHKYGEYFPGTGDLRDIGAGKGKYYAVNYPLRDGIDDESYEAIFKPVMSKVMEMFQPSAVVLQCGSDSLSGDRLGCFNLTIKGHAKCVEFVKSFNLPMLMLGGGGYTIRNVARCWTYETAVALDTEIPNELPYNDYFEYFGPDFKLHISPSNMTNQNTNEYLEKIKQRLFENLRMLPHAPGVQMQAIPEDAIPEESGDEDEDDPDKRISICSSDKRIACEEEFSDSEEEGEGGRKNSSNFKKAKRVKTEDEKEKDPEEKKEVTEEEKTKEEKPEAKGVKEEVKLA

Row | IC50 [1] [µM] | IC50 [2] [µM] | IC50 (Histone deacetylase 1) [µM] | SMILES | other results
1 | 0.331 | 0.0061 | – | N#Cc1c(N)nc(N)nc1N1CC2(CC2)C[C@H]1c1nc2cccc(Cl)c2c(=O)n1Cc1ccc(C(=O)NO)cc1 | –
2 | 0.067 | – | 0.111 | N#Cc1c(N)nc(N)nc1N1CCC[C@H]1c1nc2cccc(Cl)c2c(=O)n1Cc1ccc(C(=O)NO)s1 | –
3 | 0.036 | 0.022 | 0.288 | Cn1c([C@@H]2C[C@@H](OC(=O)NCCc3ccc(C(=O)NO)cc3)CN2c2nc(N)nc(N)c2C#N)nc2cccc(Cl)c2c1=O | –
4 | 0.027 | 0.033 | 0.287 | N#Cc1c(N)nc(N)nc1N1CC2(CC2)C[C@H]1c1nc2cccc(F)c2c(=O)n1Cc1ccc(C(=O)NO)cc1 | –
5 | 0.045 | – | 0.198 | CC[C@H](Nc1nc(N)nc(N)c1C#N)c1nc2cccc(Cl)c2c(=O)n1Cc1ccc(C(=O)NO)s1 | –
6 | 0.043 | 0.016 | 0.182 | Cn1c([C@@H]2C[C@@H](OC(=O)NCc3ccc(C(=O)NO)s3)CN2c2nc(N)nc(N)c2C#N)nc2cccc(Cl)c2c1=O | –
7 | – | – | – | O=C(CCCCCCNC(=O)c1cnc(N(c2ccccc2)c2ccccc2)nc1)NO [RICOLINOSTAT] | IC50 (T47D): 0.71 µM; IC50 (HCT-116): 1.85 µM; IC50 (KM12): 2.15 µM; IC50 (SU-DHL-6): 0.83 µM; IC50 at 72 h [3]: 13.6 µM
8 | – | – | – | CC[C@H](Nc1ncnc2[nH]cnc12)c1nc2cccc(F)c2c(=O)n1-c1ccccc1 [IDELALISIB] | IC50 (T47D): 0.51 µM; IC50 (HCT-116): 2.96 µM; IC50 (KM12): 0.96 µM; IC50 (SU-DHL-6): 0.053 µM; IC50 at 72 h [3]: 38.2 µM
9 | 0.398 | – | – | N#Cc1c(N)nc(N)nc1N1CC2(CC2)C[C@H]1c1nc(NCc2ccc(C(=O)NO)cc2)c2c(Cl)cccc2n1 | –
10 | 0.168 | 0.0068 | – | N#Cc1c(N)nc(N)nc1N1C[C@@H](OC(=O)NCc2ccc(C(=O)NO)cc2)C[C@H]1c1nc2cccc(Cl)c2c(=O)n1-c1ccccc1 | –
11 | 0.267 | – | – | N#Cc1c(N)nc(N)nc1N1CCC[C@H]1c1nc(NCc2ccc(C(=O)NO)cc2)c2c(Cl)cccc2n1 | –
12 | 0.011 | 0.042 | 0.26 | CN(Cc1ccc(C(=O)NO)cc1)C(=O)O[C@@H]1C[C@@H](c2nc3cccc(Cl)c3c(=O)n2C)N(c2nc(N)nc(N)c2C#N)C1 | –
13 | 0.032 | 0.02 | 0.082 | N#Cc1c(N)nc(N)nc1N1CC2(CC2)C[C@H]1c1nc2cccc(F)c2c(=O)n1Cc1ccc(C(=O)NO)s1 | –
14 | 0.013 | 0.075 | 0.072 | Cn1c([C@@H]2C[C@@H](OCc3ccc(C(=O)NO)cc3)CN2c2nc(N)nc(N)c2C#N)nc2cccc(Cl)c2c1=O | –
15 | 0.045 | 0.099 | 0.244 | CC[C@H](Nc1ncnc2[nH]cnc12)c1nc2cccc(F)c2c(=O)n1Cc1ccc(C(=O)NO)cc1 | –
16 | 0.087 | 0.0016 | 0.271 | N#Cc1c(N)nc(N)nc1N1C[C@H](OC(=O)NCc2ccc(C(=O)NO)cc2)C[C@H]1c1nc2cccc(Cl)c2c(=O)n1-c1ccccc1 | –
17 | 0.013 | 0.042 | 0.088 | Cn1c([C@@H]2C[C@@H](OCc3ccc(C(=O)NO)s3)CN2c2nc(N)nc(N)c2C#N)nc2cccc(Cl)c2c1=O | –
18 | 0.066 | – | 0.214 | C[C@H](Nc1nc(N)nc(N)c1C#N)c1nc2cccc(Cl)c2c(=O)n1Cc1ccc(C(=O)NO)s1 | –
19 | 0.604 | 0.0069 | – | N#Cc1c(N)nc(N)nc1N1CC2(CC2)C[C@H]1c1nc2cccc(Cl)c2c(=O)n1Cc1cc(C(=O)NO)no1 | –
20 | 0.121 | 0.036 | 0.085 | CC[C@H](Nc1ncnc2[nH]cnc12)c1nc2cccc(F)c2c(=O)n1CCCCCC(=O)NO | –
21 | 0.027 | 0.018 | 0.102 | Cn1c([C@@H]2C[C@@H](OC(=O)NCc3ccc(C(=O)NO)cc3)CN2c2nc(N)nc(N)c2C#N)nc2cccc(Cl)c2c1=O | –
22 | 0.028 | 0.136 | 0.36 | O=C(NO)c1ccc(Cn2c([C@@H]3CC4(CC4)CN3c3ncnc4[nH]cnc34)nc3cccc(F)c3c2=O)cc1 | –
23 | – | 0.024 | – | N#Cc1c(N)nc(N)nc1N1C[C@H](OC(=O)NCc2ccc(C(=O)NO)cc2)C[C@H]1c1nc2cccc(F)c2c(=O)n1-c1ccccc1 | –
24 | 0.219 | – | – | N#Cc1c(N)nc(N)nc1N1CC2(CC2)C[C@H]1c1nc(NCCc2ccc(C(=O)NO)cc2)c2c(Cl)cccc2n1 | –
25 | 0.28 | – | – | N#Cc1c(N)nc(N)nc1N1CCC[C@H]1c1nc2cccc(Cl)c2c(=O)n1Cc1ccc(C(=O)NO)cc1 | –

Source: ChEMBL document CHEMBL5214954, “Identification of PI3K/HDAC Dual-targeted inhibitors with subtype selectivity as potential therapeutic agents against solid Tumors: Building HDAC6 potency in a Quinazolinone-based PI3Kδ-selective template” (Bioorg Med Chem, 2022)
